Test results taken from patent publication US11739082B2, “Thiophene compounds, process for synthesis and use thereof” (AHAMMUNE BIOSCIENCES PRIVATE LIMITED, priority 2017, dated 2023).
pEC50: −log10 of the molar value. Counter-ions that a name gives are not always drawn.

Assays:
human A375 cells = experiment: Recovery of cell viability after tunicamycin-induced stress, MTT assay; assay type: cell-based; settings: A-375, tunicamycin 100 ng/ml, 72 h
Description: (§1) Methods used for Experimental Data: Mouse B16F10 or human A375 cells were seeded (5000 cells per well) in 96-well plates for 24 h. Cells were then treated in quadruplicate with multiple concentrations of compounds for 6 h. The compounds were dissolved in DMSO at 1000× concentration and then diluted to final concentration directly in cell culture medium. The vehicle control (VC) contains equal amount of DMSO. Cells were then treated with tunicamycin (Tm) (300 ng/ml for B16F10 and 100 ng/ml for A375 cells) and after 72 h of treatment, MTT assay was performed. Cell growth in vehicle control was calculated as 100% and effect of the compounds over tunicamycin treatment was calculated accordingly. EC50 values were calculated using GraphPad Prism 7 software.

mouse B16F10 cells = experiment: as above; assay type: cell-based; settings: B16-F10, tunicamycin 300 ng/ml, 72 h
Description: as §1

pEC50 (human A375 cells)	pEC50 (mouse B16F10 cells)	Structure (SMILES)
5.28	5.18	CCCCNC(=O)Cc1ccc(-c2ccc(Cl)cc2)s1 [AB1010, N-butyl-2-(5-(4-chlorophenyl)thiophen-2-yl)acetamide]
4.31	4.49	O=C(Cc1ccc(-c2ccc(Cl)cc2)s1)NCCN1CCOCC1 [AB1062, 2-(5-(4-chlorophenyl)thiophen-2-yl)-N-(2-morpholinoethyl)acetamide hydrochloride]
4.51	4.44	O=C(Cc1ccc(-c2ccc(F)cc2)s1)NCCN1CCOCC1 [AB1093, 2-(5-(4-fluorophenyl)thiophen-2-yl)-N-(2-morpholinoethyl)acetamide]
4.76	5.00	O=C(Cc1ccc(-c2ccc(Cl)cc2Cl)s1)NCCN1CCOCC1 [AB1099, 2-(5-(2,4-dichlorophenyl)thiophen-2-yl)-N-(2-morpholinoethyl)acetamide]
4.15	4.25	O=C(Cc1ccc(-c2ccccc2)s1)NCCN1CCOCC1 [AB1102, N-(2-morpholinoethyl)-2-(5-phenylthiophen-2-yl)acetamide]
4.47	4.36	O=C(Cc1ccc(-c2cccc(F)c2)s1)NCCN1CCOCC1 [AB1108, 2-(5-(3-fluorophenyl)thiophen-2-yl)-N-(2-morpholinoethyl)acetamide]
4.86	5.19	O=C(Cc1ccc(-c2ccc(Cl)cc2Cl)s1)NCCN1CCS(=O)(=O)CC1 [AB1109, 2-(5-(2,4-dichlorophenyl)thiophen-2-yl)-N-(2-(1,1-dioxidothiomorpholino)ethyl)acetamide]
4.20	5.20	O=C(Cc1ccc(-c2ccc(Cl)cc2Cl)s1)NCCCN1CCOCC1 [AB1110, 2-(5-(2,4-dichlorophenyl)thiophen-2-yl)-N-(3-morpholinopropyl)acetamide]
4.74	4.33	O=C(Cc1ccc(-c2cccc(Cl)c2)s1)NCCN1CCOCC1 [AB1113, 2-(5-(3-chlorophenyl)thiophen-2-yl)-N-(2-morpholinoethyl)acetamide]
5.37	4.90	O=C(Cc1ccc(-c2cc(Cl)cc(Cl)c2)s1)NCCN1CCOCC1 [AB1114, 2-(5-(3,5-dichlorophenyl)thiophen-2-yl)-N-(2-morpholinoethyl)acetamide]
	4.27	COc1ccc(-c2ccc(CC(=O)NCCN3CCOCC3)s2)cc1 [AB1115, 2-(5-(4-methoxyphenyl)thiophen-2-yl)-N-(2-morpholinoethyl)acetamide]
	4.86	O=C(Cc1ccc(-c2ccc(C(F)(F)F)cc2)s1)NCCN1CCOCC1 [AB1116, N-(2-morpholinoethyl)-2-(5-(4-(trifluoromethyl)phenyl)thiophen-2-yl)acetamide]
4.57	4.68	Cc1cc(C)n(-c2cccc(-c3ccc(CC(=O)NCCN4CCOCC4)s3)c2)n1 [AB1117, 2-(5-(3-(3,5-dimethyl-1H-pyrazol-1-yl)phenyl)thiophen-2-yl)-N-(2-morpholinoethyl) acetamide]
4.50	4.71	O=C(Cc1ccc(-c2ccc(Cl)cc2)s1)NCCCN1CCOCC1 [AB1118, 2-(5-(4-chlorophenyl)thiophen-2-yl)-N-(3-morpholinopropyl)acetamide]
5.07	5.02	O=C(Cc1ccc(-c2ccc(Cl)cc2Cl)s1)NCCCN1CCS(=O)(=O)CC1 [AB1119, 2-(5-(2,4-dichlorophenyl)thiophen-2-yl)-N-(3-(1,1-dioxidothiomorpholino)propyl)acetamide]
4.97		O=C(Cc1ccc(-c2ccc(Cl)cc2)s1)N1CCOCC1 [AB1151, 2-(5-(4-chlorophenyl)thiophen-2-yl)-1-morpholinoethan-1-one]
5.31		O=C(Cc1ccc(-c2ccc(Cl)cc2)s1)N1CCSCC1 [AB1152, 2-(5-(4-chlorophenyl)thiophen-2-yl)-1-thiomorpholinoethan-1-one]
5.22		O=C(Cc1ccc(-c2cc(Cl)cc(Cl)c2)s1)NCCCN1CCOCC1 [AB1162, 2-(5-(3,5-dichlorophenyl)thiophen-2-yl)-N-(3-morpholinopropyl)acetamide]
5.29		O=C(Cc1ccc(-c2cc(Cl)cc(Cl)c2)s1)NCCN1CCS(=O)(=O)CC1 [AB1163, 2-(5-(3,5-dichlorophenyl)thiophen-2-yl)-N-(2-(1,1-dioxidothiomorpholino)ethyl)acetamide]
5.43	5.01	O=C(Cc1ccc(-c2cc(Cl)cc(Cl)c2)s1)NCCCN1CCS(=O)(=O)CC1 [AB1164, 2-(5-(3,5-dichlorophenyl)thiophen-2-yl)-N-(3-(1,1-dioxidothiomorpholino)propyl)acetamide]
